Measured values taken from patent US11119094B2, “Aqueous citrate-buffered metal solutions” (CD DIAGNOSTICS, INC., priority 2017, dated 2021).

Key:
[1] = test system: mononuclear cells; test: Lymphocyte Transformation Test with PWM positive control in the presence of metals (toxicity); assay type: cell-based; details: metals stabilized with citrate
Excerpt: In this example, each metal tested was stabilized with citrate.

[2] = test system: lymphocytes; test: Lymphocyte Transformation Test for metal sensitivity (stimulation index); assay type: cell-based; details: SI≥4 positive
Excerpt: The Lymphocyte Transformation Test used for Metal Sensitivity Testing measures cell proliferation relative to a negative control.

## polkweed mitogen [PWM]
[1]; Donor LS 23 89053D
  Stimulation Index for PWM in the presence of 0.1 mM metals: 217
[1]; Donor LS 23 89054C
  Stimulation Index for PWM in the presence of 0.1 mM metals: 40
[1]; Donor LS 23 89058C
  Stimulation Index for PWM in the presence of 0.1 mM metals: 202
[1]; Donor LS 23 89063E
  Stimulation Index for PWM in the presence of 0.1 mM metals: 362
[2]; Subject 19A, 6 Dec. 2016, assay with citrate
  Stimulation Index: 108.15
[2]; Subject 19A, 15 Jul. 2016, assay without citrate
  Stimulation Index: 124
[2]; Subject 21R, 3 Feb. 2017, assay with citrate
  Stimulation Index: 75.85
[2]; Subject 21R, 19 Jul. 2016, assay without citrate
  Stimulation Index: 223
[2]; Subject 20112, 11 Jan. 2017, assay with citrate
  Stimulation Index: 691.43
[2]; Subject 20112, 11 Nov. 2016, assay without citrate
  Stimulation Index: 669.51
[2]; Subject 71390, 4 Nov. 2016, assay without citrate
  Stimulation Index: 119.6
[2]; Subject 71390, 11 Jan. 2017, assay with citrate
  Stimulation Index: 128.6
